These results are taken from patent US8895753B2, “S1P receptor modulating agent” (Meiji Seika Pharma Co., Ltd., priority 2011, dated 2014).

The target in one series is T1, Human S1P5 receptor (Homo sapiens, UniProt Q9H228).
T1 construct: host or cells: U2OS (EDG8-bla/U2OS)
Briefly: Agonist activity at an S1P5 receptor (reporter assay, EDG8-bla/U2OS cells). It is filed as cell-based. As for the experimental part: Human S1P5 receptor gene recombinant EDG8-bla/U2OS cells (Life Technologies Japan Ltd.) were plated in a 384-well clear bottom black plate at 10000 cells/32 μL/well, and the plate was incubated at 37° C. in a 5% CO2 incubator for 48 hours. A culture containing each test compound prepared as a 5× concentrate was added at 8 μL/well, and the plate was incubated at 37° C. in a 5% CO2 incubator for 5 hours. The substrate (LiveBLAzer™-FRET B/G substrate (CCF4-AM), Life Technologies Japan Ltd.) prepared as a 6× concentrate was added at 8 μL to each well, and the plate was incubated at room temperature for 2 hours in the dark. The fluorescence intensity of each well was measured using a bottom-reading fluorescence microplate reader at one excitation wavelength and 2 wavelengths for fluorescence emission (Ex409 nm, Em460 nm, Em530 nm). The intensity ratio of fluorescence at 460 nm/530 nm was calculated for each well. The maximum response ratio confirmed from the dose response of S1P was expressed as 100%. The concentration of test compound required to stimulate 50% of its maximal activation was determined as EC50 (nM).
(A reporter such as luciferase makes a cellular process visible.)

The next series deals with Human S1P3 receptor (Homo sapiens, UniProt Q99500). Briefly: Agonist activity at a S1P3 receptor (reporter assay, EDG3-Galpha15-NFAT-bla HEK293T cells). It is filed as cell-based. As for the experimental part:
Human S1P3 receptor gene recombinant EDG3-Galpha15-NFAT-bla HEK293T cells (Life Technologies Japan Ltd.) were plated into a 384-well clear bottom black plate treated with poly-D-lysine at a density of 1000 cells/32 μL/well, and the plate was cultured at 37° C. in a 5% CO2 incubator for 16-24 hours. A culture medium containing each test compound prepared as a 5× concentrate was added at 8 μL/well, and the plate was incubated at 37° C. in a 5% CO2 incubator for 5 hours. The substrate (LiveBLAzer™-FRET B/G substrate (CCF4-AM), Life Technologies Japan Ltd.) was prepared as a 6× concentrate was added at 8 μL to each well, and the plate was incubated at room temperature for 2 hours in the dark. The fluorescence intensity of the test samples was measured using a bottom-reading fluorescence microplate reader at one excitation wavelength and 2 wavelengths for fluorescence emission (Ex409 nm, Em460 nm, Em530 nm). The intensity ratio of fluorescence at 460 nm/530 nm was calculated for the compound at each well. The maximum response ratio confirmed from the dose response of S1P was expressed as 100%. The concentration of test compounds required to stimulate 50% of its maximal activation was computed as EC50 (nM).

Series [1] concerns collagen-induced arthritis. Briefly: Collagen-induced arthritis model. It is filed as in vivo. The conditions noted are these: DBA/1JN mouse, oral once daily for 4 weeks. As to the method: A solution of Type II collagen derived from bovine and Freund's complete adjuvant were mixed to prepare an emulsion. This emulsion was used to elicit collagen-induced arthritis in a 7-week-old female DBA/1JN mouse. The initial sensitization was carried out by subcutaneous administration of the emulsion in the tail of the mouse at a dose of 150 μg/100 μL/body. 21 days after the initial sensitization, a freshly prepared collagen emulsion solution was administered subcutaneously in the tail of the mouse at a dose of 100 μg/100 μL/body as a secondary sensitization. The mouse prepared in this procedure was used as the collagen-induced arthritis model. A compound suspended in 0.5% hydroxymethyl cellulose solution was orally administered by force once daily for 4 weeks following the additional second sensitization. Pathological scores including joint symptoms and the like were measured, and the results compared to the vehicle-treated group, from which the efficacy of the compound was evaluated.

For a further series, the system named is electrocardiogram. Briefly: Evaluation of electrocardiogram in a rat (under anesthesia). The conditions noted are these: anesthetized rat, intravenous 0.1 mg/kg body weight. It is filed as in vivo. As for the experimental part:
Under anesthesia, femoral artery was cannulated in a 7-11-week-old male SD rat (Charles River Laboratories Japan Inc.) that had been reared for more than one week, connected to a polygraph (NIHON KODEN) via a pressure transducer. Without consciousness, a vehicle (dimethylsulfoxide) or a test compound was intravenously administered. After the administration, blood pressure, the heart rate, and electrocardiogram were monitored for about 10 minutes.

The test system of a further series is enterobacterium. Briefly: Stability against enterobacterium (feces / cecum homogenates). It is filed as in vitro ADME. The conditions noted are these: cynomolgus monkey feces and rat cecum homogenates, 3 and 30 μM, 37° C., 24 hours; all conditions. As for the experimental part:
A culture medium was added to fresh feces of a cynomolgus monkey and rat cecum to prepare homogenates. To a homogenate was added the compound of the Example 2, or 1-{4-[5-(4-isopropoxyphenyl)-1,2,4-oxadiazol-3-yl]benzyl}azetidine-3-carboxylic acid (the compound of the Example 29 of Non-Patent Document 5) adjusted at a concentration of 3 and 30 μM, and the mixture was anaerobically cultured at 37° C. for 24 hours. After the cultivation, the concentration of the residual compound in the culture medium was measured on LC-MS.

Series [2] deals with experimental autoimmune encephalomyelitis. Briefly: Experimental autoimmune encephalomyelitis model. It is filed as in vivo. The settings on record: SJL/J mouse, orally once daily at 1 mg/kg body weight or more. As to the method:
An emulsion of PLP139-151/CFA was subcutaneously administered to the upper dorsal region and in the tail of an 8-week-old female SJL/J mouse at a dose of 100 μL/body. At 2 hours and 24 hours after the administration, pertussis toxin was peritoneally administered at a dose of 100 μL/body. Thus, the mouse prepared in this procedure was used as an experimental autoimmune encephalomyelitis model. […] The compound suspended in a solution of 0.5% hydroxypropyl methylcellulose was orally administered by force once daily. The changes in pathological score and body weight were recorded and the results compared to the vehicle-treated group, from which the efficacy of the compounds was evaluated.

Series [3] has as its system electrocardiogram / monophasic action potential (MAP). Briefly: Evaluation of cardiovascular system in a guinea pig. It is filed as in vivo. The settings on record: anesthetized guinea pig, 0.1 mg/kg body weight, infusion. An excerpt:
Under anesthesia with 0.5 to 1% of halothane, to a male Hartley guinea-pig (Japan SLC, Inc.) that had been reared for more than one week, a catheter for administration of a drug solution was placed into the left jugular vein, a monophasic action potential (MAP) measurement/pacing catheter was placed into the endothelial lining of the right ventricle, a catheter for measuring blood pressure was placed into the left carotid artery, and the measurement of body surface electrocardiogram (lead II) was conducted. The drug solution was infused for 10 minutes and the measurement was carried out over 60 minutes. Also, 5, 10, 15, 20, 30, 45 and 60 minutes after the administration of the drug solution, pacing was performed (200, 240, 300 bpm), and monophasic action potential (MAP) was measured.

Human S1P3 receptor, sequence (Q99500 whole entry): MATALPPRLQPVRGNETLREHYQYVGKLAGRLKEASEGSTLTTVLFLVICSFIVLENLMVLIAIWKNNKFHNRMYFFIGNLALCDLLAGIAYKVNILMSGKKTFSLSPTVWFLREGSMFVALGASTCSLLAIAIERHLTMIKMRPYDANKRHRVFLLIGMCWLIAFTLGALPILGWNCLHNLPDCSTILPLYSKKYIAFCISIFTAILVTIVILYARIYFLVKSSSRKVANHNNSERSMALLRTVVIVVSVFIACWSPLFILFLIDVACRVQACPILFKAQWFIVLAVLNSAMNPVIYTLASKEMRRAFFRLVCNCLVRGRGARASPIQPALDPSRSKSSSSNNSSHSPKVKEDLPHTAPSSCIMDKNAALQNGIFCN
T1 sequence (Q9H228 whole entry): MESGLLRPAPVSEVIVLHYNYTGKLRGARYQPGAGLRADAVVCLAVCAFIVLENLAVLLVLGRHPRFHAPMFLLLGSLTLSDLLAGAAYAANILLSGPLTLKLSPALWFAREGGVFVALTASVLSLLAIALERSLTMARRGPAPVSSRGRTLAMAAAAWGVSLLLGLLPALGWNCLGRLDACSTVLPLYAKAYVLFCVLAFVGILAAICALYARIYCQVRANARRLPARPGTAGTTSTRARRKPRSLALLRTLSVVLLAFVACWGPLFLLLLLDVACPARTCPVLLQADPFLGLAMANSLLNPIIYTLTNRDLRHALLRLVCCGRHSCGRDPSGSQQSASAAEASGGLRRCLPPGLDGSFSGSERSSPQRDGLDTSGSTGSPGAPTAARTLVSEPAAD

By EC50 is commonly meant the concentration at which the effect is half-maximal. Consider `CC(C)Oc1ccc(-c2cnc(-c3ccc(CN4CC(C(=O)O)C4)cc3)s2)cc1Cl` [Example 3, 1-(4-(5-(3-chloro-4-isopropoxyphenyl)thiazol-2-yl)benzyl)azetidine-3-carboxylic acid], for which the EC50 at Human S1P5 receptor and on Human S1P3 receptor was not below 2000 nM each time.

As to `CC(C)Oc1ccc(-c2cnc(-c3ccc(CN4CC(C(=O)O)C4)cc3)s2)cc1` [Example 2, 1-(4-(5-(4-isopropoxyphenyl)thiazol-2-yl)benzyl)azetidine-3-carboxylic acid], the EC50 at Human S1P5 receptor is not below 2000 nM. The “efficacy on pathological scores (joint symptoms)” value in series [1] is “equally effective as Fingolimod”. For the same compound, the “duration of continuous cardiac arrhythmia (AV block)” value in the series with electrocardiogram was less than 10 s. In addition, the “residual compound after anaerobic culture with homogenate” value in the series with enterobacterium is “remained almost completely intact”. Also, the “inhibition of pathological scores” value in series [2] is “significantly inhibit”. At Human S1P3 receptor, the EC50 was not below 2000 nM. Besides, in series [3], the MAP90 prolongation effect result is “not observed” and the “prolonged QT” value is listed as “not observed”.
